For series [1], the system named is IL-2 in CD4+ (CD8-) T cells. The experiment in a line: IL-2 production by CD4+ (CD8-) T cells, flow cytometry. The format is cell-based, human. The conditions noted are these: for % Positive Cells (IL-2 immunopositive), d-FEN / IL-2 Titer, d-FEN: CD4+ (CD8-) T cells, Mean ± SEM. From the text:
The T lymphocytes analyzed were obtained from 20 HIV+ patients (9 females and 11 males, 25-48 years of age). The patients were diagnosed as being HIV+ within the past 0.5-9 years, and 15 are being treated with antiviral drugs. The subjects' study identification number (indicates the order in which bloods were drawn), CD4+ and CD8+ counts (determined March, 1996, as part of the present study), age, sex, date of diagnosis, and pharmacotherapy are provided in Table 1.
The experimental protocol for this project is illustrated in Table A. Note that the cultures were exposed to two doses (5 and 50 ng/ml) of d-FEN in the mitogenesis assays, whereas only one dose (50 ng/ml) was used in the antifungal and cytokine release assays.
Cytokine Profiles. Peripheral mononuclear cells were isolated by the Ficoll-Hypaque method and washed twice with RPMI-1640 medium. Cell suspensions were made at 1×10^6 /ml and the cells activated with interleukin-2 (IL-2) for 18 h or 4 days at 37° C. under 5% CO^2 +95% air. Monensin (1 nM) then was added to the culture to block secretion of cytokines, and the cultures allowed to continue for another 3 h. The cells were washed twice with PBS+1% fetal calf serum (FCS) with 0.1% saponin+0.1% sodium azide, then washed once with PBS-1% FCS and stained with anti-cytokine MAb-FL conjugate for 30 min. Following two washes, the cells were analyzed by flow cytometry for production of IL-2, IFN-γ and TNF-α. The MAbs-FL conjugates were obtained from Pharmingen (San Diego, Calif.). Potential effects of on cytokine production were evaluated (a) as increases in the percentage of a T cell subset which produce the respective cytokine; and, (b) as increases in the amount of cytokine produced by each subset. The latter were analyzed as a shift of the cytokine histograms.
The data were analyzed by a one- or two-way analysis of variance (ANOVA) with repeated measures where appropriate ([…] version 1; Jandel, San Rafael, Calif.). Significant main effects were subjected to post hoc analysis using the Student-Newman Keuls All Pairwise Multiple Comparisons test or the Mann-Whitney U test.
For orientation: A flow cytometer gives signals particle by particle.

A further series relates to K562 human tumor cells. As to the kind of experiment: Incidence and metastasis of human K562 tumors in SCID mice reconstituted with human PBMC. In kind it is in vivo. As for the experimental part: The purpose of the present experiments was to determine whether d-FEN can enhance the ability of the human immune system to kill a human tumor cell line, vis. K562 human chronic myelogenous leukemia cells. Toward this end d-FEN and vehicle (VEH) treated young male severe combined immunodeficient (SCID) beige mice, reconstituted 4 days previously with human peripheral blood mononuclear cells (PBMC) obtained from two human volunteers, were injected with K562 cells and tumor size and number measured 13-18 days later.
SCID mice (n=36) were obtained from Harlan Sprague-Dawley Inc. (Indianapolis, Ind.). This inbred strain of mice are devoid of T, B, and natural killer (NK) cells. The animals were housed 3/cage in an AAALAC approved facility with a 12 h light-dark cycle (lights on at 07:00 h). The temperature and humidity of the facility were maintained between 72-75° F. and 52-55% respectively. Food (Purina mouse chow) and water were available ad libitum.
Protocol. The animals were divided into groups of 6 and subjected to the following treatment for each of the 2 human donors tested:
The mice treated with d-FEN (10 mg/kg/day, p.o.) received the drug daily in their drinking water beginning 10 days prior to inoculation with human PBMC. On the day of PBMC injection (3×10^7 human PBMC/mouse, i.p.) the dose of d-FEN was reduced to […]. The average daily water intakes and body weights of the mice were 6 ml and 20 g, respectively. Therefore, a dose of 6 mg/kg equaled 2 mg of d-FEN per 100 ml of water. Four days after reconstitution with human PBMC, 1×10^7 K562 human tumor cells/mouse were injected i.p. The animals were sacrificed between 11:00 and 13:00 h 13-18 days after K562 cell injection (17-22 and 27-32 days, respectively, after transfection with human PBMC and the start of d-FEN treatment). The animals were thoroughly necropsied and tumor sites counted, excised, weighed and fixed for histological analysis.
For reconstitution of SCID mice with human PBMC, 500 ml of venous blood was drawn into sterile plastic pouches containing preservative free heparin. Blood was drawn by Apheresis Lab nurses at LUMC (Loyola University Medical Center) and was diluted with an equal volume of HBSS. The diluted blood (20 ml) was layered over 10 ml of Histopaque 1077 (Sigma Chemical Company, St. Louis, Mo.) and centrifuged at 1000×g for 30 min. After centrifugation, the mononuclear cell layer was recovered from the interface and washed twice in HBSS. After microscopic enumeration, the PBMC were resuspended in HBSS at a concentration of 1×10^8 cells/ml, and 0.3 ml (3×10^7 cells) of the cell suspension was injected (i.p.) into each SCID mouse.
The K562 cell line originated from a chronic myelogenous leukemia patient and was obtained from Dr. T. Ellis (Director, Cellular Immunology Laboratory, LUMC). The K562 cells used for assessment of cytotoxic activity were maintained in long term cultures using Corning 25 cm^2 tissue culture flasks (Corning Glass Works, Corning, N.Y.) containing RPMI 1640 (Gibco Laboratories, Grand Island, N.Y.) supplemented with low LPS 10% fetal bovine serum (FBS; Gibco), 100 units/ml penicillin, 100 μg/ml streptomycin (Whittaker M. A. Bioproducts, Walkersville, Md.), 0.1 mM non-essential amino acids, and 2 mM L-glutamine (Gibco). This medium was used throughout, except where noted, and is referred to as "culture medium". The K562 cells were grown in suspension and were passaged three times per week by transfer of 10^6 K562 cells into a flask containing 10 ml of fresh culture medium. The K562 cells injected into the SCID mice were supplemented with fresh medium at a 1:3 dilution the day before administration. They were washed once in medium, pelleted by centrifugation at 500 ×g for 10 min., then resuspended at a concentration of 5×10^7. Subsequently, 0.2 ml (1×10^7 cells) of the cell suspension was injected (i.p.) into each SCID mouse. The K562 cells were administered to the animals four days after the injection of PBMC.

[2] abbreviates: K562 + PBMC + d-FEN (10 then 6 mg/kg/day p.o.).
[3] abbreviates: K562 + PBMC + d-FEN (10 then 6 mg/kg/day p.o.), p = 0.05.

The structures appear in SMILES notation.

With `CCN[C@@H](C)Cc1cccc(C(F)(F)F)c1` [d-FEN], in series [1] (50 ng/ml, AIDS), the “% Positive Cells (IL-2 immunopositive), d-FEN” value was found to be 9 ± 4% and the “IL-2 Titer, d-FEN” value is on record as 213 ± 33 geometric mean channel fluorescence. Besides, in series [1] (50 ng/ml, non-AIDS HIV+), the “% Positive Cells (IL-2 immunopositive), d-FEN” value amounted to 32 ± 3% and the “IL-2 Titer, d-FEN” value was 308 ± 27 geometric mean channel fluorescence. Also, the “effect on IL-2 levels in words” value in series [1] (50 ng/ml, CD4+ T cells, non-AIDS) is reported as “not in the non-AIDS patients' CD4+ T cells”. In series [1] (Homo sapiens, T-cell, read-out: percent increase of IL-2 titer over VEH), the activation at 0.05 µg/mL is 55%. Also, in the series with K562 human tumor cells (setting [2]), the “Number of Mice Showing Multiple Tumor Sites” value is 1/12 and the “Percent of Mice Showing Multiple Tumor Sites / tumor metastasis” value turned out to be 8%. Moreover, in the series on K562 human tumor cells (setting [3]), the “Number of Mice Having Tumors” value is given as 5/12 and the “Percent of Mice Having Tumors” value came to 42%. Also, the “Body Weight” value with K562 human tumor cells (K562 + PBMC + d-FEN (10 then 6 mg/kg/day p.o., drinking water)) amounted to 17.5 ± 2.1 g. Also, in the series on K562 human tumor cells (d-FEN treated SCID mice, p=0.05), the “incidence of histopathologically confirmed lymphomas in words” value is “significantly (p=0.05) reduced incidence”. Moreover, the “body weights and water intakes in words” value with K562 human tumor cells (d-FEN treated vs control SCID mice) is on record as “did not differ from those of the control animals”. For the same compound, the “tumor metastasis in words” value in the series with K562 human tumor cells (d-FEN treated vs other two groups, p=0.6) is on record as “did not reach significance”. For the same compound, in the series with K562 human tumor cells (doses used during the studies), the “anorexigenic action and weight loss” value is given as “No effect of this type was observed”. In addition, in the series with K562 human tumor cells (one of the d-FEN treated mice, with metastasis), the largest tumor turned out to be 0.833 g.

Values taken from US5955508A, “Method for the enhancement of lymphocyte activity against opportunistic microbial pathogens” (priority 1996, dated 1999).
